One may read the IC50 as the concentration that gives 50% inhibition. Higher therefore signals lower potency.

In brackets after ≈: the same amount, converted by molar mass.

We go through 20 compounds from US5216183A, “Cyclopentanone/cyclopentenone derivative” (Teijin Limited, priority 1988, dated 1993).

The subject of one experiment is L1210 cancer cells. As to the kind of experiment: Evaluation of antitumor activity (L1210 growth, 4 days, trypan blue). Conditions: Mus musculus, 96 h, Table 37, L1210, 1×10^5 cells/ml. It is filed as cell-based. Here is the method:
Cancer cells were grown in an RPMI 1640 culture medium containing 10% of fetal calf serum.
The compound to be tested was dissolved in 99.5% ethanol and was added to the medium so that the final concentration of the ethanol was 0.1% or less. As a control, 0.1% ethanol was used. L1210 cancer cells were inoculated at a concentration of 1×10^5 cells/ml in the medium and were grown for 4 days. The number of live cells was determined by trypan blue staining.

A further experiment deals with L1210 tumor cells. As to the kind of experiment: Measurement of anticancer activity (L1210 growth, 2 days, trypan blue). It is filed as cell-based. Conditions: Mus musculus, 48 h, Table 25, L1210, 2.5×10^4 cells/ml. The method, then:
Tumor cells were grown in an RPMI 1640 medium containing of 10% fetal calf serum.
The compound was dissolved in 99.5% ethanol, adjusted before use so that the final concentration of ethanol was 0.1% or less, and added to the medium.
The control was 0.1% ethanol, and L1210 tumor cells were inoculated in the medium in a concentration of 2.5×10^4 cells/ml and grown for 2 days. The number of surviving cells were measured by trypan blue staining.

The subject of experiment [1] is human osteoblast (KK-3, 18PDL). As to the kind of experiment: Determination (2) of bone formation activity (KK-3, 14 days). Conditions: Table 39; for ALP: control 0.44 ± 0.12; for Ca: control 106 ± 12; for P: control 61 ± 10. In kind it is cell-based. Here is the method:
Human osteoblast (KK-3, 18PDL) was cultured in α-MEM containing 10% fetal bovine serum, and when a stable growth was attained, a predetermined concentration of the compound was added in the presence of 2 mM α-glycerophosphoric acid salt, followed by treatment for 14 days. The cell layer was washed with physiological salt solution and the alkali phosphatase activity then measured by absorption at OD415. Then, calcium and phosphorus were extracted with a 2N hydrochloric acid solution and quantitated.

The next experiment relates to human osteoblasts. Conditions: Koshihara et al., Biochemical Society of Japan (Preprints, 1988, p.767); cited from earlier work.
Experiment [2] deals with human osteoblast (SAM-1, 12PDL). As to the kind of experiment: Determination (1) of bone formation activity (SAM-1, 25 days). In kind it is cell-based. Conditions: Table 38; for Ca per DNA: control 0.386 ± 0.245; for ALP per DNA: control 1.148 ± 0.050; for P per DNA: control 1.528 ± 0.316. Here is the method:
Human osteoblast (SAM-1, 12PDL) was cultured in α-MEM containing 10% fetal bovine serum, and when a stable growth was attained, a predetermined concentration of the compound was added in the presence of 2 mM α-glycerophosphoric acid salt, followed by treatment for 25 days. The cell layer was washed with Hank's solution and the alkali phosphatase activity then measured by absorption at OD410. Next, calcium and phosphorus were extracted with a 5% perchloric acid solution and quantitated, and DNA was extracted with 5% perchloric acid at 90° C., and the weight thereof quantitated. These evaluations were conducted according to the methods of Koshihara et al (Biochemical and Biophysical Research Communication Vol 145, No. 2, 1987, p. 651).

Regarding `CCCCCC(O)C=CC1C=C([S+](C)[O-])C(=O)C1=CCCCCCC(=O)OC` (stereo not drawn) [2-methylsulfinyl-5-(6-methoxycarbonyl-hexylidene)-4-(3-hydroxy-1-octenyl)-2-cyclopentenone], it took 4 µg/mL (≈ 9.74 µM) to reach half-maximal inhibition in the experiment with L1210 cancer cells (IC50).
Same read-out and setting: for `CCCCCC(O)C=CC1C=C(SC)C(=O)C1=CCCCCCC(=O)OC` (stereo not drawn) [drawing 1097, 2-methylthio-5-(6-methoxycarbonyl-hexylidene)-4-(3-hydroxy-1-octenyl)-2-cyclopentenone] the value was 5 µg/mL (≈ 12.7 µM).
In turn, `CCOc1ccc2nc(SC3=CC(O)(CCCCOc4ccccc4)C(=CC=CC(O)CCCO)C3=O)sc2c1` (stereo not drawn) [drawing 1061] yielded a concentration for half-maximal inhibition (IC50) with L1210 tumor cells of 0.02 µg/mL (≈ 0.0344 µM).
In turn, `CS(=O)(=O)C1=CC(O)(CCCCOc2ccccc2)/C(=C\C=C\C(O)CCCO)C1=O` (stereo not drawn) [2-methylsulfonyl-5-[( -- E)-4,7-dihydroxy-2-heptenylidene]-4-(4-phenoxybutyl)-4-hydroxy-2-cyclopentenone] displayed an IC50 with L1210 cancer cells of 2 µg/mL (≈ 4.44 µM).
Consider `O=C1C(SC2CCCCC2)=CC(O)(CCCCOc2ccccc2)C1=CC=CC(O)CCCO` (stereo not drawn) [drawing 1059], for which half-maximal inhibition with L1210 tumor cells (IC50) was put at 0.78 µg/mL (≈ 1.6 µM).
Still for that read-out and setting: for `Cn1ccnc1SC1=CC(O)(CCCCOc2ccccc2)C(=CC=CC(O)CCCO)C1=O` (stereo not drawn) [drawing 1062] the value was 0.15 µg/mL (≈ 0.31 µM).
As for `CSC1=CC(O)(CCCCOc2ccccc2)/C(=C/C=C/C(O)CCCO)C1=O` (stereo not drawn) [drawing 1106, 2-methylthio-5-[( -- Z)-4,7-dihydroxy-2-heptenylidene]-4-(4-phenoxybutyl)-4-hydroxy-2-cyclopentenone], in experiment [1] (10^-6 M), the ALP was found to be 1.12 OD 415 nm/dish and the Ca was 168 μg/dish. Further, in experiment [1] (10^-7 M), the ALP was found to be 0.48 ± 0.08 OD 415 nm/dish, the P is listed as 63 ± 6 μg/dish and the Ca is given as 111 ± 9 μg/dish. Further, in experiment [1] (10^-8 M), the ALP worked out at 0.28 ± 0.06 OD 415 nm/dish, the P was 47 ± 6 μg/dish and the Ca was 84 ± 10 μg/dish.
`C[S+]([O-])C1=CC(=CCCCOc2ccccc2)/C(=C/C=C/C(O)CCCO)C1=O` (stereo not drawn) [2-methylsulfinyl-5-[( -- Z)-4,7-dihydroxy-2-heptenylidene]-4-(4-phenoxybutylidene)-2-cyclopentenone]: in the experiment on L1210 cancer cells, half-maximal inhibition (IC50) was put at 0.1 µg/mL (≈ 0.24 µM).
In experiment [1] (10^-6 M), `CSC1=CC(O)(CCCCOc2ccccc2)/C(=C\C=C\C(O)CCCO)C1=O` (stereo not drawn) [2-methylthio-5-[( -- E)-4,7-dihydroxy-2-heptenylidene]-4-(4-phenoxybutyl)-4-hydroxy-2-cyclopentenone] gave an ALP of 0.97 OD 415 nm/dish and a Ca of 168 μg/dish. In experiment [1] (10^-7 M), this compound displayed an ALP of 0.56 ± 0.08 OD 415 nm/dish, a P of 64 ± 3 μg/dish and a Ca of 114 ± 4 μg/dish. For the same compound, in experiment [1] (10^-8 M), the ALP is 0.24 ± 0.02 OD 415 nm/dish, the P is recorded as 47 ± 2 μg/dish and the Ca is recorded as 87 ± 6 μg/dish.
Turning to `CCCCC[C@H](O)/C=C/[C@H]1C(=O)C[C@H](O)[C@@H]1C/C=C\CCCC(=O)O` [prostaglandin D2], in the experiment with human osteoblasts, the “calcification by human osteoblasts” value is reported as “accelerated”.
In the experiment with L1210 cancer cells, `C[S+]([O-])C1=CC(O)(CCCCOc2ccccc2)/C(=C\C=C\C(O)CCCO)C1=O` (stereo not drawn) [2-methylsulfinyl-5-[( -- E)-4,7-dihydroxy-2-heptenylidene]-4-(4-phenoxybutyl)-4-hydroxy-2-cyclopentenone] showed a 50% inhibitory concentration (IC50) of 1 µg/mL (≈ 2.3 µM).
Take `COC(=O)COc1cccc(C=C2C(=O)C(SC)=CC2(O)CCCCOc2ccccc2)c1` (stereo not drawn) [drawing 1060]: in the experiment on L1210 tumor cells, 0.83 µg/mL (≈ 1.77 µM) corresponded to half-maximal inhibition (IC50).
In the case of `C[S+]([O-])C1=CC(O)(CCCCOc2ccccc2)/C(=C/C=C/C(O)CCCO)C1=O` (stereo not drawn) [drawing 1102, 2-methylsulfinyl-5-[( -- Z)-4,7-dihydroxy-2-heptenylidene]-4-(4-phenoxybutyl)-4-hydroxy-2-cyclopentenone], the midpoint of inhibition in the experiment on L1210 cancer cells, the IC50, lay at 1 µg/mL (≈ 2.3 µM).
Take `CSC1=CC(O)C(=CC=CC(O)CCCO)C1=O` (stereo not drawn) [drawing 1064]: inhibition in the experiment with L1210 tumor cells was half-maximal at 0.1 µg/mL (≈ 0.37 µM) (IC50).
Still for that read-out and setting: for `Cn1ccnc1SC1=CC(O)(CCCCOc2ccccc2)C(C(O)C=CC(O)CCCO)C1=O` (stereo not drawn) [drawing 1066] the value was 0.32 µg/mL (≈ 0.637 µM).
`CSC1=CC(O)(CCCCOc2ccccc2)/C(=C/C=C/C(O)CCCO)C1=O` (stereo not drawn) [drawing 1105, 2-methylthio-5-[( -- Z)-4,7-dihydroxy-2-heptenylidene]-4-(4-phenoxybutyl)-4-hydroxy-2-cyclopentenone]: in experiment [2] (10^-6 M), the “Ca per DNA” value amounted to 29.410 μg/μg DNA, the “ALP per DNA” value was 1.447 OD 410 nm/μg DNA and the “P per DNA” value is reported as 5.743 ± 0.630 μg/μg DNA. Moreover, in experiment [2] (10^-7 M), the “Ca per DNA” value worked out at 8.847 ± 1.485 μg/μg DNA, the “ALP per DNA” value was determined as 0.333 ± 0.039 OD 410 nm/μg DNA and the “P per DNA” value came to 5.270 ± 0.144 μg/μg DNA.
The compound `CSC1=CC(=CCCCOc2ccccc2)/C(=C/C=C/C(O)CCCO)C1=O` (stereo not drawn) [drawing 1103, 2-methylthio-5-[( -- Z)-4,7-dihydroxy-2-eptenylidene]-4-(4-phenoxybutylidene)-2-cyclopentenone] displayed an IC50 in the experiment with L1210 cancer cells of 3.5 µg/mL (≈ 8.74 µM).
Still for that read-out and setting: the result for `CSC1=CC(O)(CCCCOc2ccccc2)/C(=C/C=C/C(O)CCCO)C1=O` (stereo not drawn) [drawing 1101, 2-methylthio-5-[( -- Z)-4,7-dihydroxy-2-eptenylidene]-4-(4-phenoxybutyl)-4-hydroxy-2-cyclopentenone] reads 1.2 µg/mL (≈ 2.87 µM).
`CSC1=CC(CCCCOc2ccccc2)C(=CC=CC(O)CCCO)C1=O` (stereo not drawn): the midpoint of inhibition in the experiment with L1210 tumor cells, the IC50, lay at 1.9 µg/mL (≈ 4.72 µM).
In turn, `CCCCC1=C(Sc2nccn2C)C(=O)C(=CC=CC(O)CCCO)C1(O)CCCCOc1ccccc1` (stereo not drawn) [drawing 1063] returned a concentration for half-maximal inhibition (IC50) in the experiment with L1210 tumor cells of 2.3 µg/mL (≈ 4.25 µM).
